Experimental data reported in ChEMBL document CHEMBL1139332, “Selective activity against Mycobacteriumtuberculosis of new quinoxaline 1,4-di-N-oxides” (Bioorg Med Chem, 2009).
Converted amounts (≈) assume the structure as drawn.

Assays:
[1] = tested on: Mycobacterium tuberculosis; test: Antimicrobial activity against Mycobacterium tuberculosis H37Rv at 6.25 ug/ml by microplate alamar blue assay; assay type: functional
Vero = test: Cytotoxicity against african green monkey Vero cells after 72 hrs by MTT assay; assay type: cell-based, Chlorocebus sabaeus; details: Chlorocebus sabaeus, Vero, 72 h; read-out: IC50
[2] = tested on: Mycobacterium tuberculosis; test: Antimicrobial activity against Mycobacterium tuberculosis H37Rv by microplate alamar blue assay; assay type: functional
[3] = Selectivity index, ratio of IC50 for african green monkey Vero cells to MIC for Mycobacterium tuberculosis H37Rv; assay type: functional

Structure (SMILES)	inhibition at 6.25 µg/mL [1] [%]	IC50 (Vero) [µg/mL]	MIC [2] [µg/mL]	Ratio [3]
COC(=O)c1ccc(-c2c(C#N)[n+]([O-])c3ccccc3[n+]2[O-])cc1	90	4.8 (≈ 14.9 µM)	0.78 (≈ 2.43 µM)	6.2
Cc1ccc(-c2c(C#N)[n+]([O-])c3cc(Cl)c(Cl)cc3[n+]2[O-])cc1	90	0.72 (≈ 2.08 µM)	3.13 (≈ 9.04 µM)	0.23
CCOC(=O)c1c(-c2ccccc2)[n+]([O-])c2ccc(Cl)cc2[n+]1[O-]	90	3.33 (≈ 9.66 µM)	1.56 (≈ 4.52 µM)	2.13
COC(=O)c1ccc(-c2c(C#N)[n+]([O-])c3cc(C(F)(F)F)ccc3[n+]2[O-])cc1	90	1.93 (≈ 4.96 µM)	< 0.2	>9.64
CCOC(=O)c1c(-c2ccccc2)[n+]([O-])c2ccc(OC)cc2[n+]1[O-]	90	17.8 (≈ 52.2 µM)	6.25 (≈ 18.4 µM)	2.84
CCOC(=O)c1c(-c2ccccc2)[n+]([O-])c2cc(C)c(C)cc2[n+]1[O-]	90	> 10	6.25 (≈ 18.5 µM)	>1.6
CCOC(=O)c1c(-c2ccccc2)[n+]([O-])c2ccccc2[n+]1[O-]	90	24.8 (≈ 79.8 µM)	1.56 (≈ 5.03 µM)	15.87
CCOC(=O)c1c(-c2ccc(Br)cc2)[n+]([O-])c2ccccc2[n+]1[O-]	90	6.12 (≈ 15.7 µM)	0.39 (≈ 1 µM)	15.69
CCOC(=O)c1c(-c2ccc(F)cc2)[n+]([O-])c2ccccc2[n+]1[O-]	90	8.9 (≈ 27.1 µM)	0.39 (≈ 1.19 µM)	22.82
CCOC(=O)c1c(-c2ccc(Cl)cc2)[n+]([O-])c2ccccc2[n+]1[O-]	90	4.8 (≈ 13.9 µM)	0.39 (≈ 1.13 µM)	12.31
CCOC(=O)c1c(-c2ccc(C)cc2)[n+]([O-])c2ccccc2[n+]1[O-]	90	11.3 (≈ 34.8 µM)	0.78 (≈ 2.4 µM)	14.47
CCOC(=O)c1c(-c2ccc(C(F)(F)F)cc2)[n+]([O-])c2ccccc2[n+]1[O-]	90	2.24 (≈ 5.92 µM)	1.56 (≈ 4.12 µM)	1.44
Cc1ccc(-c2c(C#N)[n+]([O-])c3cc(C)c(C)cc3[n+]2[O-])cc1	90	> 62.5	1.56 (≈ 5.11 µM)	>40
COC(=O)c1ccc(-c2c(C#N)[n+]([O-])c3cc(C)c(C)cc3[n+]2[O-])cc1	90	9.66 (≈ 27.7 µM)	6.25 (≈ 17.9 µM)	1.5
CCOC(=O)c1c(-c2ccc([N+](=O)[O-])cc2)[n+]([O-])c2ccccc2[n+]1[O-]	90	2.26 (≈ 6.36 µM)	0.78 (≈ 2.2 µM)	2.9
Cc1ccc(-c2c(C#N)[n+]([O-])c3ccccc3[n+]2[O-])cc1	90	0.68 (≈ 2.45 µM)	0.39 (≈ 1.41 µM)	1.7
Cc1ccc(-c2c(C#N)[n+]([O-])c3cc(Cl)ccc3[n+]2[O-])cc1	90	0.63 (≈ 2.02 µM)	6.25 (≈ 20 µM)	0.1
COc1ccc2c(c1)[n+]([O-])c(C#N)c(-c1ccc(C)cc1)[n+]2[O-]	90	3.8 (≈ 12.4 µM)	1.56 (≈ 5.08 µM)	2.4
COC(=O)c1ccc(-c2c(C#N)[n+]([O-])c3cc(Cl)ccc3[n+]2[O-])cc1	90	20.9 (≈ 58.7 µM)	3.13 (≈ 8.8 µM)	6.7
COC(=O)c1ccc(-c2c(C#N)[n+]([O-])c3cc(C)ccc3[n+]2[O-])cc1	90	3.2 (≈ 9.54 µM)	0.39 (≈ 1.16 µM)	8.2
COC(=O)c1ccc(-c2c(C#N)[n+]([O-])c3cc(OC)ccc3[n+]2[O-])cc1	90	3.9 (≈ 11.1 µM)	3.13 (≈ 8.91 µM)	1.2
Cc1ccc(-c2c(C#N)[n+]([O-])c3cc(C(F)(F)F)ccc3[n+]2[O-])cc1	90	0.28 (≈ 0.811 µM)	< 0.2	>1.42
COc1ccc(-c2c(C#N)[n+]([O-])c3cc(F)ccc3[n+]2[O-])cc1	90	13 (≈ 41.9 µM)	< 0.2	65.15
CCOC(=O)c1c(-c2ccccc2)[n+]([O-])c2ccc(C)cc2[n+]1[O-]	90	18.6 (≈ 57.4 µM)	1.56 (≈ 4.81 µM)	11.93
CCOC(=O)c1c(-c2ccccc2)[n+]([O-])c2cc(F)c(F)cc2[n+]1[O-]	90	0.38 (≈ 1.1 µM)	1.56 (≈ 4.5 µM)	0.24
COc1ccc(-c2c(C#N)[n+]([O-])c3cc(C(F)(F)F)ccc3[n+]2[O-])cc1	90	0.9 (≈ 2.49 µM)	< 0.2	>4.53
CCOC(=O)c1c(-c2ccc(OC)cc2)[n+]([O-])c2ccccc2[n+]1[O-]	90	7.65 (≈ 22.5 µM)	1.56 (≈ 4.58 µM)	4.9
COC(=O)c1ccc(-c2c(C#N)[n+]([O-])c3cc(F)ccc3[n+]2[O-])cc1	90	57.5 (≈ 169 µM)	< 0.2	>258.67
Cc1ccc(-c2c(C#N)[n+]([O-])c3cc(F)ccc3[n+]2[O-])cc1	90	14.6 (≈ 49.6 µM)	< 0.2	>73.19
CO[C@H]1/C=C/O[C@@]2(C)Oc3c(C)c(O)c4c(O)c(c(/C=N/N5CCN(C)CC5)c(O)c4c3C2=O)NC(=O)/C(C)=C\C=C\[C@H](C)[C@H](O)[C@@H](C)[C@@H](O)[C@@H](C)[C@H](OC(C)=O)[C@@H]1C [RIFAMPIN]	90	> 100	0.125 (≈ 0.152 µM)	>800
